Reference: PMC12375005 (Communications Biology, 2025)

Columns and labels:
TcCCE34 = experiment: inhibition of alpha-naphthyl acetate hydrolysis; type: biochemical, Tetranychus cinnabarinus; conditions: 3 × 10^−4 mol/L alpha-naphthyl acetate; 10 min preincubation 30 °C; 5% acetone
TcGSTm8 = target: T1, TcGSTm8 (Tetranychus cinnabarinus, UniProt U5YE47); experiment: inhibition of CDNB conjugation; type: biochemical; conditions: 6 mM GSH; 0.6 mM CDNB; 10 min preincubation 25 °C; 5% acetone
T1 sequence (U5YE47 1-227): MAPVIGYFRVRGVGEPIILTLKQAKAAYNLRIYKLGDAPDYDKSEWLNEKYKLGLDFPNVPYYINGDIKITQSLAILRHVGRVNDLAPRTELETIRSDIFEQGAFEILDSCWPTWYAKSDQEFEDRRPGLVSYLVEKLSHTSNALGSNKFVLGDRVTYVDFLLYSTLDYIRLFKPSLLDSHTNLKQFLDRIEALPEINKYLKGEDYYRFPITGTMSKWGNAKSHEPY

| SMILES | IC50 (TcCCE34) [µM] | IC50 (TcGSTm8) [mM] |
| --- | --- | --- |
| CCOP(=S)(OCC)Oc1nc(Cl)c(Cl)cc1Cl [chlorpyrifos] | 57.2 ± 7.42 | 1.18 ± 0.09 |
| COCCOC(=O)C(C#N)(C(=O)c1ccccc1C(F)(F)F)c1ccc(C(C)(C)C)cc1 (stereo not drawn) [cyflumetofen] | 630 ± 39.8 | 1.57 ± 0.11 |
| CC1(C)C(C(=O)OC(C#N)c2cccc(Oc3ccccc3)c2)C1(C)C (stereo not drawn) [fenpropathrin] | 42.5 ± 8.44 | 1.09 ± 0.05 |
